What was measured:
Assay type in all cases: biochemical
KRAS G12V = target: T1, KRAS G12V (Homo sapiens, UniProt P01116, G12V); experiment: HTRF assay, KRAS G12V interaction with SOS1; conditions: bins <500 nM / 500 nM to 1000 nM, read-out: Inhibition of KRAS G12V (IC50)
T1 construct: made in house; host or cells: E. coli, e.g. BL21 (DE3)
Text: (§1) This assay can be also used to assess a selective inhibition or reduction of signaling output of a mutant Ras protein relative to a wildtype, or relative to a different mutant Ras protein. For example, the equilibrium interaction of wildtype KRAS or K-Ras mutant (e.g., wildtype or a mutant thereof) with SOS1 (e.g., hSOS1) can be assessed as a proxy or an indication for the ability of a subject compound to bind and inhibit Ras protein. The HTRF assay detects from (i) a fluorescence resonance energy transfer (FRET) donor (e.g., antiGST-Europium) that is bound to GST-tagged K-Ras mutant to (ii) a FRET acceptor (e.g., anti-6His-XL665) bound to a His-tagged hSOSL1.
(§2) The assay buffer can contain ~5 mM HEPES pH 7.4, ~150 mM NaCl, ~1 mM DTT, 0.05% BSA and 0.0025% (v/v) Igepal. A Ras working solution is prepared in an assay buffer containing typically a suitable amount of the protein construct (e.g., GST-tagged K-Ras mutant) and the FRET donor (e.g., antiGST-Eu(K) from Cisbio, France). A SOS1 working solution is prepared in an assay buffer containing suitable amount of the protein construct (e.g., His-hSOS1) and the FRET acceptor (e.g., anti-6His-XL665 from Cisbio, France). A suitable amount of the protein construct will depend on the range of activity or range of IC50 values being detected or under investigation. For detecting an IC50 within a range of 500 nM, the protein constructs of the same range of molarity can be utilized.
(§3) A fixed volume of DMSO with or without test compound is transferred into a 384-well plate. Ras working solution is added to all wells of the test plate. SOS1 working solution is added to all wells except for those that are subsequently filled with inhibitor control solution. Upon incubation for about 10 minutes or longer, the fluorescence is measured with a M1000Pro plate reader (Tecan) using HTRF detection (excitation 337 nm, emission 1: 620 nm, emission 2: 665 nm). Compounds are tested in duplicate at different concentrations (for example, 10 μM, 2.5 μM, 0.63 μM, 0.16 μM, 0.04 μM, 0.01 μM test compound). The ratiometric data (i.e., emission 2 divided by emission 1) is used to calculate IC50 values against Ras using GraphPad Prism (GraphPad software). Signaling output measured in terms of IC50 values can be obtained and a ratio of IC50 against one mutant relative to another mutant can be calculated. For instance, a selective reduction of K-Ras G12S signaling output can be evidenced by a ratio greater than one. In particular, a selective reduction of K-Ras G12S signaling relative to K-Ras WT signaling is evidenced if the ratio of IC50 (against K-Ras WT) to IC50 (against K-Ras G12S) is greater than 1.

KRAS G12D = target: T2, KRAS G12D (Homo sapiens, UniProt P01116, G12D); experiment: HTRF assay, KRAS G12D interaction with SOS1; conditions: bins <500 nM / 500 nM to 1000 nM, read-out: Inhibition of KRAS G12D (IC50)
T2 construct: made in house; host or cells: E. coli, e.g. BL21 (DE3)
Text: as §1, §2, §3

KRAS G12S = target: T3, KRAS G12S (Homo sapiens, UniProt P01116, G12S); experiment: HTRF assay, KRAS G12S interaction with SOS1; conditions: bins <500 nM / 500 nM to 1000 nM, read-out: Inhibition of KRAS G12S (IC50)
T3 construct: made in house; host or cells: E. coli, e.g. BL21 (DE3)
Text: as §1, §2, §3

KRAS WT = target: T4, KRAS WT (Homo sapiens, UniProt P01116); experiment: HTRF assay, wildtype KRAS interaction with SOS1; conditions: bins <500 nM / 500 nM to 1000 nM, read-out: Inhibition of KRAS WT (IC50)
T4 construct: made in house; host or cells: E. coli, e.g. BL21 (DE3)
Text: as §1, §2, §3

Measured: IC50

T1 sequence (P01116 1-188 isoform P01116-2 G12V): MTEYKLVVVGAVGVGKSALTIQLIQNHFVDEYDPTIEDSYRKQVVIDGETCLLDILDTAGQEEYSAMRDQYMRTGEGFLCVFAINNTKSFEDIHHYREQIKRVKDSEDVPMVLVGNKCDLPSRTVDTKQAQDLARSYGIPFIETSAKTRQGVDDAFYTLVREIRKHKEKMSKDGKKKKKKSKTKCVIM
T4 sequence (P01116 1-188 isoform P01116-2): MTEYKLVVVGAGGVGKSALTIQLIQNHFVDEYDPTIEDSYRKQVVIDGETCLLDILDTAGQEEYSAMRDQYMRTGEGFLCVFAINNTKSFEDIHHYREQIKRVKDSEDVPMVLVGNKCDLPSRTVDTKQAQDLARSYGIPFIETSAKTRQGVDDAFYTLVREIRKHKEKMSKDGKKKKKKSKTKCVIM
T2 sequence (P01116 1-188 isoform P01116-2 G12D): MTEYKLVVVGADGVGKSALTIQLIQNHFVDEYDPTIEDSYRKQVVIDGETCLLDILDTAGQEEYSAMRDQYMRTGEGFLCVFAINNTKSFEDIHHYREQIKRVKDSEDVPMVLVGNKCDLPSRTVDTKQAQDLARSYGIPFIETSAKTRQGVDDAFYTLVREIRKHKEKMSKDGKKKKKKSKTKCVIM
T3 sequence (P01116 1-188 isoform P01116-2 G12S): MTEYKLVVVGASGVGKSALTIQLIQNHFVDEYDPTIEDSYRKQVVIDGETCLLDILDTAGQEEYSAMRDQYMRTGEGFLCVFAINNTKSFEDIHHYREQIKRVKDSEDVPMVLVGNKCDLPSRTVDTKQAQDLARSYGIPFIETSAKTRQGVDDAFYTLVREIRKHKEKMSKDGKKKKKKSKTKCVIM

CCN(c1nc(OC[C@@]23CCCN2C[C@H](F)C3)nc2c(F)c(-c3ccc(F)c4sc(N)c(C#N)c34)c(C3CC3)cc12)[C@@H]1CCN(C(=O)n2cc(C)nc2C)[C@@H]1C (atropisomer, axis not shown; (aS)) [Compound 190, (S)-2-amino-4-(6-cyclopropyl-4-(((2R,3R)-1-(2,4-dimethyl-1H-imidazole-1-carbonyl)-2-methylpyrrolidin-3-yl)(ethyl)amino)-8-fluoro-2-(((2R,7aS)-2-fluorotetrahydro-1H-pyrrolizin-7a(5H)-yl)methoxy)quinazolin-7-yl)-7-fluorobenzo[b]thiophene-3-carbonitrile]
< 500 nM: all assays above

CN(c1nc(OC[C@@]23CCCN2C[C@H](F)C3)nc2c(F)c(-c3ccc(F)c4sc(N)c(C#N)c34)c(Cl)cc12)C1CN(C(=O)n2ccnc2)CC1F (single isomer, unassigned) [Compound 191]
< 500 nM: all assays above

Cc1cn(C(=O)N2CC[C@@H](N(C)c3nc(OC[C@@]45CCCN4C[C@H](F)C5)nc4c(F)c(-c5ccc(F)c6sc(N)c(C#N)c56)c(Cl)cc34)[C@H]2C)c(C)n1 [Compound 105, 2-amino-4-(6-chloro-4-(((2R,3R)-1-(2,4-dimethyl-1H-imidazole-1-carbonyl)-2-methylpyrrolidin-3-yl)(methyl)amino)-8-fluoro-2-(((2R,7aS)-2-fluorotetrahydro-1H-pyrrolizin-7a(5H)-yl)methoxy)quinazolin-7-yl)-7-fluorobenzo[b]thiophene-3-carbonitrile]
< 500 nM: all assays above

CCN(c1nc(OC[C@@]23CCCN2C[C@H](F)C3)nc2c(F)c(-c3cccc4sc(N)c(C#N)c34)c(Cl)cc12)[C@@H]1CCN(C(=O)n2cc(C#N)nc2C)[C@@H]1C [Compound 113, 1-((2R,3R)-3-((7-(2-amino-3-cyanobenzo[b]thiophen-4-yl)-6-chloro-8-fluoro-2-(((2R,7aS)-2-fluorotetrahydro-1H-pyrrolizin-7a(5H)-yl)methoxy)quinazolin-4-yl)(ethyl)amino)-2-methylpyrrolidine-1-carbonyl)-2-methyl-1H-imidazole-4-carbonitrile]
< 500 nM: all assays above

Cc1ncn(C(=O)N2C[C@H]3[C@@H]2CCCN3c2nc(OC[C@]34CCCN3C[C@@H](F)C4)nc3c(F)c(-c4ccc(F)c5sc(N)c(C#N)c45)c(Cl)cc23)c1C [Compound 129, 2-amino-4-(6-chloro-4-((1S,6S)-7-(4,5-dimethyl-1H-imidazole-1-carbonyl)-2,7-diazabicyclo[4.2.0]octan-2-yl)-8-fluoro-2-(((2S,7aR)-2-fluorotetrahydro-1H-pyrrolizin-7a(5H)-yl)methoxy)quinazolin-7-yl)-7-fluorobenzo[b]thiophene-3-carbonitrile]
< 500 nM: all assays above

CCN(c1nc(OC[C@@]23CCCN2C[C@H](F)C3)nc2c(F)c(-c3ccc(F)c4sc(N)c(C#N)c34)c(Cl)cc12)[C@@H]1CCN(C(=O)n2cnc3c2CCC3)[C@@H]1C [Compound 132, 2-amino-4-(6-chloro-4-(ethyl((2R,3R)-2-methyl-1-(1,4,5,6-tetrahydrocyclopenta[d]imidazole-1-carbonyl)pyrrolidin-3-yl)amino)-8-fluoro-2-(((2R,7aS)-2-fluorotetrahydro-1H-pyrrolizin-7a(5H)-yl)methoxy)quinazolin-7-yl)-7-fluorobenzo[b]thiophene-3-carbonitrile]
< 500 nM: all assays above

CC1CC(N(C)c2nc(OC[C@@]34CCCN3C[C@H](F)C4)nc3c(F)c(-c4ccc(F)c5sc(N)c(C#N)c45)c(Cl)cc23)CN1C(=O)n1cnc(F)n1 (stereo partly drawn) [Compound 146, 2-amino-4-(6-chloro-8-fluoro-4-((1-(3-fluoro-1H-1,2,4-triazole-1-carbonyl)-5-methylpyrrolidin-3-yl)(methyl)amino)-2-(((2R,7aS)-2-fluorotetrahydro-1H-pyrrolizin-7a(5H)-yl)methoxy)quinazolin-7-yl)-7-fluorobenzo[b]thiophene-3-carbonitrile]
< 500 nM: all assays above

CC1CC(N(C)c2nc(OC[C@@]34CCCN3C[C@H](F)C4)nc3c(F)c(-c4ccc(F)c5sc(N)c(C#N)c45)c(Cl)cc23)CCN1C(=O)n1ccnc1 (stereo partly drawn) [Compound 153, 4-(4-((1-(1H-imidazole-1-carbonyl)-2-methylpiperidin-4-yl)(methyl)amino)-6-chloro-8-fluoro-2-(((2R,7aS)-2-fluorotetrahydro-1H-pyrrolizin-7a(5H)-yl)methoxy)quinazolin-7-yl)-2-amino-7-fluorobenzo[b]thiophene-3-carbonitrile]
< 500 nM: KRAS G12V | KRAS G12S | KRAS WT

COCC1([C@H]2N(C(=O)n3cnc(C)c3)C[C@]23CCCCN(c2nc(OC[C@@]45CCCN4C[C@H](F)C5)nc4c(F)c(-c5ccc(F)c6sc(N)c(C#N)c56)c(Cl)cc24)C3)CC1 [Compound 203, 2-amino-4-(6-chloro-8-fluoro-2-(((2R,7aS)-2-fluorotetrahydro-1H-pyrrolizin-7a(5H)-yl)methoxy)-4-((1S,4R)-1-(1-(methoxymethyl)cyclopropyl)-2-(4-methyl-1H-imidazole-1-carbonyl)-2,6-diazaspiro[3.6]decan-6-yl)quinazolin-7-yl)-7-fluorobenzo[b]thiophene-3-carbonitrile]
< 500 nM: all assays above

Cc1ncn(C(=O)N2CC3CCCN(c4nc(OC[C@@]56CCCN5C[C@H](F)C6)nc5c(F)c(-c6ccc(F)c7sc(N)c(C#N)c67)c(Cl)cc45)C3C2)c1C (stereo partly drawn) [Compound 206, 2-amino-4-(6-chloro-4-(6-(4,5-dimethyl-1H-imidazole-1-carbonyl)octahydro-1H-pyrrolo[3,4-b]pyridin-1-yl)-8-fluoro-2-(((2R,7aS)-2-fluorotetrahydro-1H-pyrrolizin-7a(5H)-yl)methoxy)quinazolin-7-yl)-7-fluorobenzo[b]thiophene-3-carbonitrile]
< 500 nM: all assays above

Cc1cn(C(=O)N2C[C@]3(CCCCN(c4nc(OC[C@@]56CCCN5C[C@H](F)C6)nc5c(F)c(-c6ccc(F)c7sc(N)c(C#N)c67)c(Cl)cc45)C3)[C@H]2C2(C)CC2)cn1 [Compound 207, 2-amino-4-(6-chloro-8-fluoro-2-(((2R,7aS)-2-fluorotetrahydro-1H-pyrrolizin-7a(5H)-yl)methoxy)-4-((1R,4R)-2-(4-methyl-1H-imidazole-1-carbonyl)-1-(1-methylcyclopropyl)-2,6-diazaspiro[3.6]decan-6-yl)quinazolin-7-yl)-7-fluorobenzo[b]thiophene-3-carbonitrile]
< 500 nM: all assays above

C=C1CN2CC(=C)CC2(COc2nc(N(CC)[C@@H]3CCN(C(=O)n4cnc(Cl)n4)[C@@H]3C)c3cc(C(F)(F)F)c(-c4ccc(F)c5sc(N)c(C#N)c45)c(F)c3n2)C1 [Compound 219, 2-amino-4-(4-(((2R,3R)-1-(3-chloro-1H-1,2,4-triazole-1-carbonyl)-2-methylpyrrolidin-3-yl)(ethyl)amino)-2-((2,6-dimethylenetetrahydro-1H-pyrrolizin-7a(5H)-yl)methoxy)-8-fluoro-6-(trifluoromethyl)quinazolin-7-yl)-7-fluorobenzo[b]thiophene-3-carbonitrile]
< 500 nM: all assays above
